Measured values from patent US11932630B2, “Heteroaryl aminopropanol derivatives” (NOVARTIS AG, priority 2021, dated 2024).
pIC50: −log10 of the molar value.

How the values were obtained:
[1] = Hygroscopicity by DVS; format: physicochemical; conditions: for Hygroscopicity (DVS), moisture / water vapor absorbed: at 95% RH
[2] = Loss on drying by TGA after storage at 92 % RH; format: physicochemical; conditions: heating rate 10 K/min, % @ °C, temperature in the line below (100, 230, 170, 195 °C)
Method: Thermoaravimetric Analysis (TGA):
TGA curves were obtained using a TA-instrument Q5000. 0.5-2 mg of sample was placed into an open aluminum pan. The TGA curve was measured at 10° C./min between 30-300° C. The LoD (Loss of drying) was calculated between 30° C. and 100° C. or 150° C. The weight loss is plotted against the measured sample temperature. Temperatures are reported in degrees Celsius (° C.) and weight loss in %.

[3] = molecular target: T1, human LTA4H (Homo sapiens, UniProt P09960); experiment: Human LTA4H enzyme assay (Arg-AMC substrate); format: biochemical; conditions: Arg-AMC 600 μM, 9 nM human LTA4H, 15 min pre-incubation; mean values of at least 3 measurements; read-out: ArgAMC IC50
T1 sequence (P09960 1-611): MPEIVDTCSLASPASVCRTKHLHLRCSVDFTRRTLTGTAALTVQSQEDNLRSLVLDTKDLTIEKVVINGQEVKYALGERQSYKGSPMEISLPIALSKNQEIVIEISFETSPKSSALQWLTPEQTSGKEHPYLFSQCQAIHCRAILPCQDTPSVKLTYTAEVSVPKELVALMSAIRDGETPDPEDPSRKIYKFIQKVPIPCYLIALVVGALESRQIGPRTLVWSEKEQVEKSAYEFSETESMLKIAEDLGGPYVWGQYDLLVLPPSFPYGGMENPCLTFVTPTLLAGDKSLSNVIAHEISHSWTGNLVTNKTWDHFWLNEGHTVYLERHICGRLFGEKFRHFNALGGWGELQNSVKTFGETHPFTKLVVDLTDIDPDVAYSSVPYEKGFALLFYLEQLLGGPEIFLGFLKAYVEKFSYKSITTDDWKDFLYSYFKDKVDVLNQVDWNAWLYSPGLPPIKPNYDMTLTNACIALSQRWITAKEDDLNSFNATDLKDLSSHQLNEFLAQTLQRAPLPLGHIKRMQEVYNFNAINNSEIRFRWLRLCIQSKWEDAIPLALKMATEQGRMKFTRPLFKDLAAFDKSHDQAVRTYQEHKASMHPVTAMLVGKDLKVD
Method: a) Human LTA4H Enzyme Assay:
[…] (LTA4H) catalyzes the vinylogous hydrolysis of the epoxide, leukotriene A4 (LTA4) into the pro-inflammatory mediator LTB4.
For compound testing, compounds are delivered as 10 mM stock solutions in 90% DMSO (10% water) in matrix tubes. […] A final substrate concentration of 600 μM, which is around the KM value of Arg-AMC, at a final enzyme concentration of 9 nM is chosen. Upon addition of the substrate, the plate is immediately placed in a fluorescence reader and the fluorescence is measured every 10 minutes for 60 minutes using the filter setting λ excitation=380 nm and A emission=460 nm. […] Raw data is converted to rate (moles per minute) using the AMC calibration curve calculated from the AMC standards. The data is analyzed in GraphPad Prism (GraphPad software Inc.) using non-linear regression to determine IC50 values of LTA4H inhibitors.

[4] = system: LTB4 biosynthesis in human whole blood; experiment: Human whole blood assay (hWB), inhibition of LTB4 biosynthesis; format: cell-based; conditions: human blood diluted 1:3, 4 hours with compound, 10 μg/ml A23187 for 15 min, eicosanoid by ELISA; read-out: hWB IC50
Method: b) Human Whole Blood Assay:
Compounds are tested in a human whole blood assay (hWB) to test their ability to inhibit LTB4 biosynthesis in a human cellular system. To this end, fresh blood is collected in heparinized vacutainers by venipuncture from volunteers. Blood is diluted 1:3 with RPM (Roswell Park Memorial Institute) medium and aliquots of 200 μL are transferred to 96-well round bottom cell culture plates. For compound testing, compounds are delivered as 10 mM stock solutions in 90% DMSO in matrix tubes. […] 4 μL of compound dilution or vehicle is added to 200 μL of blood and incubated for 4 hours at 37° C. in a humidified incubator. […] Incubation is terminated by centrifugation at 300 g for 10 min at 22° C. Plasma supernatant is taken and transferred to a 96 well plate for eicosanoid determination by ELISA (Assay designs) according to the manufacturer's protocol after 1:20 dilution in assay buffer. The data is analyzed in GraphPad Prism (GraphPad software Inc.) using non-linear regression to determine IC50 values of LTA4H inhibitors.

pIC50 [3] | pIC50 [4] | Compound | also measured
 |  | N[C@H](CO)Cn1ccc(-c2ccc(Oc3ncc(-c4cc[nH]n4)cc3F)cc2)n1 [Example 42, (S)-2-amino-3-(3-(4-((3-fluoro-5-(1H-pyrazol-3-yl)pyridin-2-yl)oxy)phenyl)-1H-pyrazol-1-yl)propan-1-ol] | Hygroscopicity (DVS), moisture reversibly absorbed ([1]; above 70% RH, transforming into a hydrated form): 3%; Hygroscopicity (DVS), moisture / water vapor absorbed [1]: 2.97 @ 95%; Loss on drying by TGA, After 1 day at 92 % RH ([2]; listed as Ex 42): 2.46 @ %
 |  | N[C@H](CO)Cn1ccc(-c2ccc(Oc3ncc(-c4ccn[nH]4)cc3F)cc2)n1 [Example 43, (S)-2-amino-3-(3-(4-((3-fluoro-5-(1H-pyrazol-5-yl)pyridin-2-yl)oxy)phenyl)-1H-pyrazol-1-yl)propan-1-ol] | Hygroscopicity (DVS), moisture / water vapor absorbed ([1]; listed as hydrochloride salt (Form E)): 0.6%; Loss on drying by TGA, After 1 day at 92 % RH ([2]; listed as Ex 43): 0.30 @ %
 |  | N[C@H](CO)Cn1ccc(-c2ccc(Oc3ncc(-c4cc[nH]n4)cc3F)cc2)n1 [Example 46, (S)-2-amino-3-(3-(4-((3-fluoro-5-(1H-pyrazol-3-yl)pyridin-2-yl)oxy)phenyl)-1H-pyrazol-1-yl)propan-1-ol] | Loss on drying by TGA, After 1 day at 92 % RH ([2]; listed as Ex 46): 0.96 @ %
 |  | N[C@H](CO)Cn1ccc(-c2ccc(Oc3ncc(-c4ccn[nH]4)cc3F)cc2)n1 [Example 45, (S)-2-amino-3-(3-(4-((3-fluoro-5-(1H-pyrazol-5-yl)pyridin-2-yl)oxy)phenyl)-1H-pyrazol-1-yl)propan-1-ol] | Hygroscopicity (DVS), moisture / water vapor absorbed ([1]; listed as Modification A): about 0.5%; Hygroscopicity (DVS), moisture / water vapor absorbed ([1]; listed as hippurate salt (Form A)): 0.5%
 |  | N[C@H](CO)Cn1ccc(-c2ccc(Oc3ncc(-c4ccn[nH]4)cc3F)cc2)n1 [Example 44, (S)-2-amino-3-(3-(4-((3-fluoro-5-(1H-pyrazol-3-yl)pyridin-2-yl)oxy)phenyl)-1H-pyrazol-1-yl)propan-1-ol] | Hygroscopicity (DVS), moisture / water vapor absorbed [1]: 0.32% @ 95% RH; Hygroscopicity (DVS), moisture / water vapor absorbed ([1]; listed as hippuric acid salt (Form B)): about 0.3%; Loss on drying by TGA, After 1 day at 92 % RH ([2]; listed as Ex 44): 0.21 @ %
8.57 | 7.05 | N[C@H](CO)Cn1nnc(-c2ccc(Oc3ncc(-c4ccn[nH]4)cc3F)cn2)n1 [Example 22, (S)-2-amino-3-(5-(5-((3-fluoro-5-(1H-pyrazol-5-yl)pyridin-2-yl)oxy)pyridin-2-yl)-2H-tetrazol-2-yl)propan-1-ol] | 
8.59 | 7.33 | N[C@H](CO)Cn1ccc(-c2ccc(Oc3ncc(-c4cc[nH]n4)cc3F)cc2)n1 [Example 37, (S)-2-amino-3-(3-(4-((3-fluoro-5-(1H-pyrazol-5-yl)pyridin-2-yl)oxy)phenyl)-1H-pyrazol-1-yl)propan-1-ol] | 
7.42 | 6.12 | N[C@H](CO)Cn1ccc(-c2ccc(Oc3ncc(Cl)cc3F)cn2)n1 [Example 23, (S)-2-amino-3-(3-(5-((5-chloro-3-fluoropyridin-2-yl)oxy)pyridin-2-yl)-1H-pyrazol-1-yl)propan-1-ol] | 
8.31 | 7.19 | N[C@@H](CO)Cn1nnc(-c2ccc(Oc3ccc(-c4ccn[nH]4)cn3)cc2)n1 [Example 19, (R)-3-(5-(4-((5-(1H-pyrazol-3-yl)pyridin-2-yl)oxy)phenyl)-2H-tetrazol-2-yl)-2-aminopropan-1-ol] | 
8.59 | 7.21 | N[C@H](CO)Cc1nnn(-c2ccc(Oc3ncc(-c4ccn[nH]4)cc3F)cc2)n1 [Example 40, (S)-2-amino-(2-(4-((3-fluoro-5-(1H-pyrazol-5-yl)pyridin-2-yl)oxy)phenyl)-2H-tetrazol-5-yl)propan-1-ol] | 

Compound | pIC50 [3] | pIC50 [4] | also measured
N[C@H](CO)Cn1nnc(-c2ccc(Oc3ccc(Cl)cn3)cc2)n1 [Example 34, (S)-2-Amino-3-(5-(4-((5-chloropyridin-2-yl)oxy)phenyl)-2H-tetrazol-2-yl)propan-1-ol] | 8.40 | 6.10 | 
C[C@H](Cc1ccccc1)Oc1ccc(-c2noc(C[C@H](N)CO)n2)cc1 [Example 17, (S)-2-amino-3-(3-(4-(((R)-1-phenylpropan-2-yl)oxy)phenyl)-1,2,4-oxadiazol-5-yl)propan-1-ol] | 7.78 | 6.53 | 
